Assay results reported in PubChem BioAssay AID2060497 (Molecular Pharmacology Branch, DTP, NCI, 2025).
Several values for one entry are separate records, joined by “and”; a condition that tells them apart may be missing. Equal values may be shown once.

Tested on: 317291-083-R-J1-PDC complex spheroids, viability
Assay: Anticancer human tumor 317291-083-R-J1-PDC patient-derived soft tissue sarcoma cell line growth inhibition [GQUAD]
Details: for viability, T/C: stronger effect = lower value; for IC50: curve of compound
Text: DNA G-quadruplex Stabilizer Agents in Combinations in Complex Spheroids
A high-throughput screen of multi-cell type tumor spheroids was designed to identify active combinations of DNA G-quadruplex stabilizer agents and targeted small molecules. Complex spheroids include a stromal component modeled by human endothelial cells (HUVEC) and fibroblasts modeled by human mesenchymal stem cells (MSCs). The concentration ranges selected for each drug and investigational agent were based upon clinically achievable concentrations if the clinical Cmax of the agent was known.
Compounds. The drugs and investigational agents: pidnarulex (CX-5461; NSC782164), APTO-253 (NSC789042), BRACO-19 (NSC847499), peposertib (NSC802822), ceralasertib (NSC780249), elimusertib (NSC800525), camonsertib (NSC841442), AZD-1390 (NSC803789), olaparib (NSC753686), talazoparib (NSC767125), ART-558 (NSC835418), sotorasib (NSC818433), MRTX-1133 (NSC836407), SN-38 (NSC673596), topotecan (NSC609699), etoposide (NSC141540), doxorubicin (NSC123127), gemcitabine (NSC613327), 5-fluorouracil (NSC19893), paclitaxel (NSC125973), vemurafenib (NSC761431), panobinostat (NSC761190), R-306465 (JNJ-16241199; NSC773264), adavosertib (NSC754352), TP-3654 (NSC805149), carboplatin (NSC241240), KSQ-4279 (NSC840948), and staurosporine (NSC755774) were obtained from the National Cancer Institute (NCI) Developmental Therapeutics Program Chemical Repository (34). The FDA-approved anticancer drug set is available from the NCI Developmental Therapeutics Program. […] The stock solutions were prepared in dimethyl sulfoxide (DMSO, Sigma-Aldrich, St. Louis, MO, cat. D2650) at 800-fold the tested concentration and stored at -70 degrees C prior to their use. All drugs and investigational agents were tested over a range starting from a high concentration at or near the clinical Cmax and decreasing in half-log increments. If the clinical Cmax for an agent had not been determined, the highest concentration tested was 10 microM.
2.3 Cell Culture. All cells were maintained in an incubator at 37 degrees C and 5% CO2 with 95% humidity. The PDC lines were cultured according to standard operating procedures established by the NCI PDMR. All PDCs were thawed and cultured in Matrigel-coated flasks prepared with a working solution of 1X Ham's F-12 nutrient mix, without supplementation (Invitrogen, cat. 11765054), 100 U/mL penicillin-streptomycin (Invitrogen, cat. 15140122), and 2.5% Matrigel (Corning Inc., cat. 354248) for the first three passages. The 857933-349-R-J2-PDC line was cultured in 6C/Colon 1B media, which includes advanced DMEM/F-12 (Thermo Fisher Scientific, cat. 12634028), 10 mM HEPES (Thermo Fisher Scientific, cat. 15630080), 1X GlutaMAX supplement (Thermo Fisher Scientific, cat. 35050061), 0.1 mg/mL primocin (InvivoGen, cat. ant-pm-2), 10% defined fetal bovine serum, heat inactivated (HyClone Laboratories Inc., cat. SH30070.03HI), 50% L-WRN conditioned media (ATCC, cat. CRL-3276), 1.25 mM N-Acetyl-L-cysteine (Sigma-Aldrich, cat. A9165), 10 mM nicotinamide (Sigma-Aldrich, cat. N0636), 1X B-27 supplement (Thermo Fisher Scientific, cat. 17504044), 1X N-2 supplement (Thermo Fisher Scientific, cat. 17502048), 10 microM Y-27632 dihydrochloride (Tocris Bioscience, cat. 1254), and 50 ng/mL human EGF recombinant protein (Thermo Fisher Scientific, cat. PHG0311). The 485176-168-R4-J1-PDC line was cultured in Panc media, which includes all 6C/Colon 1B media components plus 100 ng/mL human FGF-10 (Thermo Fisher Scientific, cat. 100-26), 500 nM SB-431542 (Selleckchem, cat. S1067), and gastrin (Tocris, cat. 3006).
[…]
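Further: spheroids exposed to compounds for one week before readout.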
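Wherever viability, T/C is given: percent viability relative to DMSO vehicle wells taken as 100%.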

| SMILES | IC50 | viability, T/C (compound 0.0316 µM) | viability, T/C (compound 0.1 µM) | viability, T/C (compound 0.316 µM) | viability, T/C (compound 1 µM) | viability, T/C (compound 3.16 µM) | viability, T/C (compound 10 µM) | viability, T/C (compound 0.000999 µM) | viability, T/C (compound 0.00316 µM) | viability, T/C (compound 0.00999 µM) | viability, T/C (compound 0.0999 µM) |
| --- | --- | --- | --- | --- | --- | --- | --- | --- | --- | --- | --- |
| COc1ncnc(C2CC2)c1-c1ncc2cnn(Cc3ccc(-c4nc(C(F)(F)F)cn4C(C)C)cc3)c2n1 | > 10000 nM | 103% and 107% and 108% | 92.9% and 85.3% and 81.5% | 92.4% and 71.4% and 68.1% | 74.2% and 64.1% and 68.2% | 100% and 63.6% and 68.3% | 76.2% and 72.3% and 64.5% |  |  |  |  |
| CC(=O)O[C@H]1C(=O)[C@@]2(C)[C@H]([C@H](OC(=O)c3ccccc3)[C@]3(O)C[C@H](OC(=O)[C@H](O)[C@@H](NC(=O)c4ccccc4)c4ccccc4)C(C)=C1C3(C)C)[C@]1(OC(C)=O)CO[C@@H]1C[C@@H]2O | 39.7 nM and < 31.6 nM | 57.3% and 36.6% and 33.9% | 20.6% and 16.7% and 10.5% | 13.1% and 15.6% and 6.57% | 12.8% and 15.3% and 9.02% | 12.2% and 9.53% and 10.6% | 12.3% and 12.5% and 12.1% |  |  |  |  |
| Cc1[nH]c2ccccc2c1CCNCc1ccc(/C=C/C(=O)NO)cc1 | 41.4 nM and 57.9 nM and 65.3 nM | 62.6% and 80.2% and 99% |  | 0.25% and 0.09% and 0.84% |  |  |  | 108% and 109% and 114% | 92% and 89.5% and 96.1% | 106% and 110% and 105% | 8.77% and 22.1% and 21.3% |
| Cn1ncnc1[C@H]1c2n[nH]c(=O)c3cc(F)cc(c23)N[C@@H]1c1ccc(F)cc1 | > 316 nM | 86.2% and 89.7% and 90.5% |  | 64.2% and 62.6% and 69% |  |  |  | 123% and 104% (2×) | 109% and 92.2% and 102% | 99.7% and 95.3% and 94.3% | 98.2% and 67.3% and 84.9% |
| C#Cc1c(F)ccc2cc(O)cc(-c3ncc4c(N5CC6CCC(C5)N6)nc(OCC56CCCN5CC(F)C6)nc4c3F)c12 (stereo not drawn) | > 10000 nM and 7160 nM and 8220 nM | 102% and 110% and 104% | 121% and 94.4% and 94.7% | 106% and 97.1% and 94.4% | 117% and 102% and 95.2% | 124% and 92.5% and 79.8% | 87.1% and 32.5% and 43.6% |  |  |  |  |

Further lines, with some results ahead:

| IC50 | SMILES | viability, T/C (compound 0.0316 µM) | viability, T/C (compound 0.1 µM) | viability, T/C (compound 0.316 µM) | viability, T/C (compound 1 µM) | viability, T/C (compound 3.16 µM) | viability, T/C (compound 10 µM) | viability, T/C (compound 0.000999 µM) | viability, T/C (compound 0.00316 µM) | viability, T/C (compound 0.00999 µM) | viability, T/C (compound 0.0999 µM) |
| --- | --- | --- | --- | --- | --- | --- | --- | --- | --- | --- | --- |
| > 10000 nM | C=CC(=O)N1CCN(c2nc(=O)n(-c3c(C)ccnc3C(C)C)c3nc(-c4c(O)cccc4F)c(F)cc23)C(C)C1 (stereo not drawn) | 108% (2×) and 110% | 105% and 102% and 99.9% | 118% and 108% and 110% | 101% (2×) and 102% | 99.1% and 101% and 97.7% | 69.1% and 68% and 75.9% |  |  |  |  |
| 1.61 nM and 1.72 nM and 1.51 nM | CCc1c2c(nc3ccc(O)cc13)-c1cc3c(c(=O)n1C2)COC(=O)[C@]3(O)CC | 12.7% and 11.9% and 9.88% |  | 4.6% and 5.68% and 4.03% |  |  |  | 67.6% and 68.7% and 66.8% | 24.9% and 26.7% and 19.9% | 13% and 18.2% and 10.6% | 8.64% and 6.96% and 7.26% |
| 1050 nM and 1400 nM and 1980 nM | CC1COCCN1c1cc(C2(S(C)(=N)=O)CC2)nc(-c2ccnc3[nH]ccc23)n1 (stereo not drawn) | 88.1% and 103% and 100% | 104% and 90.7% and 106% | 91.8% and 90.3% and 101% | 50.2% and 61.5% and 87% | 23.9% and 23.1% and 24.4% | 13.9% and 18.3% and 13.1% |  |  |  |  |
| 68.4 nM and 71.5 nM and 69.3 nM | COc1cccc2c1C(=O)c1c(O)c3c(c(O)c1C2=O)CC(O)(C(=O)CO)CC3OC1CC(N)C(O)C(C)O1 (stereo not drawn) | 77.5% and 82.5% and 86.8% | 35% and 28.7% and 27.3% | 20% and 26.3% and 22.3% | 8.85% and 15.2% and 15.3% | 3.09% and 0.8% and 0.76% | 4.03% and 0.72% and 2.93% |  |  |  |  |
